Results reported in patent US20100093643A1 (priority 2006, published 2010).
Read-outs that look alike come from different tables or passages of the source. Square brackets hold non-standard residues; d marks the D form. Ends that are not written are not given here. Phe(4-NO2) = N[C@@H](Cc1ccc([N+](=O)[O-])cc1)C(=O)O; dDab = NCC[C@@H](N)C(=O)O

Tests used:
CD-1 male mice = assay: Analgesic activity in vivo, hot plate method; design: species or system mouse; settings: for analgesic effect in words: hot plate
Description: Male Swiss albino mice (CD1), weighing 20-22 g were used throughout the study. The animals were housed in solid bottom polycarbonate cages with access to standard laboratory diet (Laboratory Rodent Diet PK-120) and tap water ad libitum, under controlled environmental conditions (temperature:18-26° C., 8 a.m. to 8 p.m. light-dark cycle). Mice were tested only once.
The Hot-plate-meter represents the thermostatic controllable, electro-heated up surface limited by transparent walls (L: 25 cm, W: 25 cm, H: 35 cm). The forward panel of the device is equipped by buttons for the control of time and a temperature mode (Columbus Instruments).
The i.v. administration was performed via tail vein as a bolus injection. The doses for all animals were calculated on the basis of the last value of the individual body weight.
The animals accurately were placed on the preheated hot plate (55±0.5° C.) after i.v. injection of saline or peptides and the latencies to first paw licking and first jumping were measured. The other behavioral reactions were ignored. The animals were removed from a hot surface after the first jumping. A cut-off time of 180 s was used to avoid tissue damage.
To evaluate the hot-plate test responses, the control latencies (t0) and test latencies (t1) were determined after injection of saline or peptides, respectively. The percentage of the maximal possible effect (% MPE) was calculated as % MPE=(t1−t0)/(t2−t0)×100, where the cut-off time (t2) was 180 s.
The latency for the first jumping is considered as the most indicative in the hot-plate test. The area under the time-response curve was calculated by methods described elsewhere (Cicero and Meyer, 1973), to assess the magnitude of antinociception (FIG. 5, see appendix).
The median analgesic dose (ED50) also has been calculated for this parameter.

outbreed male mice = assay: Analgesic activity in vivo, tail pinch method; design: species or system mouse; settings: for Duration of analgesic effect at ED60-80 / ED50 nmol/animal (dose interval) / Relative analgesic activity morphine = 1: intracisternal administration
Description: Analgesic activity of enkephalin analogues was determined by a “tail pinch” method [Ueda H.; Amano H.; Shiomi H.; Takagi H. (1979). Eur. J. Pharmacol., 56, 265-268]. […] Ten mice were used in each experiment.
The studied substances were dissolved in sterile physiological solution and injected in J-shaped needles into the brain of conscious mice at a dose of 10 μl. Control animals received 10 μl of sterile physiological solution. Intravenous administration was into the tail vein. Analgesic activity was tested by pinching the mouse tail with an artery clip with 200 g pressure. The mice who bit the clip within one second after application of pinching were selected for assays. Analgesic activity was defined as latency on the biting response greater than 6 sec. The analgesic tests were performed 5, 15, 30, 60 and 90 min after administration and then every 30 min until the analgesic reaction was stopped. The analgesic activity of the peptides was expressed as a percentage of mice not showing the biting response.

[1] = tested on: rats with ligature of coronary arteries; assay type: in vivo, rat; design: myocardial necrosis size: unit not given here
[2] = tested on: BALB mice under normobaric hypoxic hypoxia; assay: Antihypoxic action, lifetime of mice under normobaric hypoxic hypoxia; assay type: in vivo, mouse
Description: Antihypoxic action of the new enkephalin analogue (1) was determined by the measurement of lifetime duration in mice under the normobaric hypoxic hypoxia conditions.
The experiments were conducted on BALB-bread mice weighing 20 to 22 g. The normobaric hypoxic hypoxia conditions were modelled by placing the animals in hermetic camera, containing Ca(OH)2 to absorb the excess of carbon dioxide. The substances studied were injected intraperitoneally 1 min. before the placing of animals in the hermetic camera. The peptides were used at doses 1.0 mg/kg. […] Sodium oxybutyrate at highest therapeutic dose was used as comparative compound. The lifetime was estimated as the time when the animals stopped making breathing movements.

[3] = biological target: T1, peripheral opiate receptors, guinea pig ileum (GPI, predominantly μ-type of opioid receptor) (Cavia porcellus, UniProt A0ACM8Q262); settings: [Leu^5]-enkephalin = 100
T1 construct: other: guinea pig ileum longitudinal muscle, electrical stimulation; GPI Relative potency, %; other: GPI assay

[4] = tested on: peripheral opiate receptors, guinea pig ileum (GPI, predominantly μ-type of opioid receptor); settings: ratio of relative potencies GPI to MVD
[5] = tested on: peripheral opiate receptors, mouse vas deferens (MVD); assay: MVD bioassay, suppression of electrically induced contraction
Description: Brit. J. Pharmacol., 35, 10-28]. The longitudinal muscle of ileum from guinea pig of any sex (weight 350-500 g) was carefully separated from underlying circular muscle and placed into a small bath with Krebs solution at 36° C.
The solution was constantly aerated. A constant load of 0.2 g was applied to the tissue. The tissue was stimulated by means of the ring platinum electrodes by single impulses of […] duration with 0.1 Hz frequency. […] Vas deferens of mice (weight 27 to 30 g) were placed into a bath with modified Krebs solution (not containing magnesium sulphate) at 31° C. The substances under study were dissolved in distilled water. The inhibiting activity of the compounds was determined by accumulating doses, adding increasing concentrations of the compounds without washing. The activity of the preparations was expressed as IC50 in nmol/l. The results obtained in 8-10 tests were statistically processed using Student's criterion.

[6] = tested on: male Sprague-Dawley rats, left coronary artery occlusion (LCAO); assay: Cardiac ischemia rat model, left coronary artery occlusion 25 min / reperfusion 120 min, infarct size; assay type: in vivo
Description: Male Sprague-Dawley (CD) rats weighing 280-380 g were used throughout this study. The rats were anesthetized by i.p. administration of urethane (1-1.5 g/kg). A tracheotomy was performed, and the trachea of the animal was intubated with a cannula connected to a rodent ventilator (model UGO BASILE 7025). Body temperature was maintained at 37° C. by use of a heating pad and monitored using rectally placed temperature probes connected to a digital thermometer. Body temperature is monitored and maintained at 37±1° C.)
The femoral artery was isolated and cannulated to measure blood pressure (BP) by a BP transducer (model PN:1891-E45, DTX™, Singapore) connected with computer. Mean arterial pressure and heart rate was calculated by special software. The right femoral vein was cannulated to allow administration of peptides or saline and methylene blue dye.
A left thoracotomy was performed to expose the heart at the fifth intercostal space. The pericardium was removed and a suture was placed under the left coronary artery in the groove between the pulmonary outflow track and left ventricle. With the tubing placed on the myocardial surface, the ligature could be tightened around the left coronary artery and clamped to provide a readily reversible occlusion of blood flow. Hemodynamics and body temperature were monitored during the procedure.
The protocol of experiments conducted in urethane-anesthetized open-chest rats subjected to regional myocardial ischemia-reperfusion is illustrated in FIG. 1 (see appendix).
All animals were subjected to 25 minutes of occlusion and 2 hours of reperfusion. Several doses (0.1 μg/kg-1 μg/kg) of the peptide (4) were given 5 minutes before occlusion. The coronary artery in all rats was occluded by pulling up on the suture and clamping it with plastic tube. At 25 minutes, the clump was released and coronary artery reperfusion was allowed. The surface of the left ventricle pinks up. After 120 min of reperfusion, the ligature was again tightened to occlude the left coronary artery, and […] methylene blue dye (0.4 ml of 10% w/v in saline) was injected. Once the dye had stained the heart, except in the area at risk, clearly demarcating the total area at risk (AAR), the heart was then quickly removed from the animal and washed out in a water, and the atria, valvular material and right ventricular wall were removed leaving just the left ventricle. The left ventricle was then sectioned transversely into 2-mm slices. The area defined as normal (dyed blue) was separated from the AAR (not dyed blue), and the slices are stained by incubation in 1% 2,3,5-triphenyltetrazolium chloride in pH 7.4 buffer for 15 min at 37° C. Infarcted areas appeared whitish after 2,3,5-triphenyltetrazolium chloride staining, whereas non-infarcted, or viable, areas appeared reddish in colour. Then the slices were immersed in 10% formalin for 5 minutes for fixing.
The slices were photographed. The areas of infarct (2,3,5-triphenyltetrazolium chloride negative) and risk zone (2,3,5-triphenyltetrazolium chloride stained) for each slice are traced and digitized using a computerized planimetry technique. The areas of each region were estimated using computerized planimetry (program “ImageTool”)
The infarct area was divided by the area at risk to determine the ratio of the infarct area/area at risk. (IS/AAR). Data were presented as infarct size (IS) as a percentage of the AAR (i.e., % IS/AAR) for statistical analysis of cardioprotective effects (decreased % IS/AAR). The statistical comparison for in vivo infarct reduction was made with vehicle controls.
A dose-response curve for the cardioprotective effects of peptide (4), compared with vehicle (n=12), was produced with i.v. peptide (4) doses of 0.01 (n=6), 0.1 (n=12), 1.0 (n=12) μg/kg, and 0.005 (n=12) mg/kg administered 5 min before LCAO in a 1 ml/kg dosing volume as a bolus. […]

[7] = tested on: male Sprague-Dawley rats, left coronary artery occlusion (LCAO); assay: as above; assay type: in vivo; remark: listed apart in the source
[8] = i.v., dose 8 μmol/kg, jump latency time (FIG. 4)
[9] = intravenous administration, time point of 15 min
[10] = 0.1 μg/kg i.v. 5 min before occlusion
[11] = 5 μg/kg i.v. 5 min before occlusion

T1 sequence (A0ACM8Q262 1-400): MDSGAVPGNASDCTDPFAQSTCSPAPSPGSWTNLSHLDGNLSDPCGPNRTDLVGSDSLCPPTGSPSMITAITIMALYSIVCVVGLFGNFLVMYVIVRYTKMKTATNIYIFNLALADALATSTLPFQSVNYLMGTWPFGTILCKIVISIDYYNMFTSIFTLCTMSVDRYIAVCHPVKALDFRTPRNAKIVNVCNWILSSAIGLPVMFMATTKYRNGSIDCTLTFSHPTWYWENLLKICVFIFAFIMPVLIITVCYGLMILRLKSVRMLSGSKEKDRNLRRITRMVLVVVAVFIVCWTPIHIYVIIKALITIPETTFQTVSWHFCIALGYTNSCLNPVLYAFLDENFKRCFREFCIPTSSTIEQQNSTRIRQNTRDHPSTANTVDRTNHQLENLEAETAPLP

Molecule: Tyr-D-Orn(Ac-Asn)-Gly-Phe(p-NO2)—NH2 [Peptide 3]
- delay of analgesic effect (CD-1 male mice; [8]): 15 min
- analgesic effect in words (CD-1 male mice; i.v.): practically similar to that of morphine
- ED50 (jump latency) (CD-1 male mice; [9]): 2.04 mg/kg

Molecule: Tyr-D-Orn(Ac-Gly)-Gly-Phe(p-NO2)—NH2 [Peptide 5]
- analgesic effect in words (CD-1 male mice; i.v.): practically similar to that of morphine
- ED50 (jump latency) (CD-1 male mice; [9]): 1.99 mg/kg

Molecule: CN1CC[C@]23c4c5ccc(O)c4O[C@H]2[C@@H](O)C=C[C@H]3[C@H]1C5 [Morphine, reference compound]
- ED50 (outbreed male mice; Mus musculus, intravenous administration, read-out: ED50 μmol/kg (dose interval)): 18 µmol/kg
- ED50 (CD-1 male mice; Mus musculus, 0.25 h, intravenous administration, time point of 15 min, read-out: ED50 (jump latency)): 2.67 mg/kg

Molecule: O=[N+]([O-])OCC(CO[N+](=O)[O-])O[N+](=O)[O-] [nitroglycerine, reference compound]
- myocardial necrosis size ([1]; rat, in vivo): 54.04 ± 1.76
- CPK ([1]; rat, in vivo, 0.05 mg/kg): 101.1 ± 6.1 units/l
- HF-CPK ([1]; rat, in vivo, 0.05 mg/kg): 19.8 ± 1.1 units/l
- Lactate ([1]; rat, in vivo, 0.05 mg/kg): 1.80 ± 0.09 mmol/L

Molecule: CC(C)NCC(O)COc1cccc2ccccc12.Cl (stereo not drawn) [anaprilinum, reference compound]
- myocardial necrosis size ([1]; comparison medicines at highest therapeutic doses, observation time 12 hours): 53.80 ± 1.90

Molecule: O=C(O)CCCO [Sodium oxybutyrate, reference compound]
- Duration of life ([2]; 1000.0 mg/kg (highest therapeutic dose) i.p. 1 min before hermetic chamber): 15.5 ± 0.4 min
- lifetime increase in comparison with the control experiments ([2]; 1000.0 mg/kg i.p.): 24%

Molecule: Tyr-Gly-Gly-Phe-Met [[Met^5]-enkephalin, reference compound]
- Duration of analgesic effect at ED60-80 (outbreed male mice): 15 min
- ED50 nmol/animal (dose interval) (outbreed male mice): 154 (90-261) nmol/animal
- Relative analgesic activity morphine = 1 (outbreed male mice): 0.008

Molecule: Tyr-Gly-Gly-Phe-Leu [[Leu^5]-enkephalin, reference compound]
- Duration of analgesic effect at ED60-80 (outbreed male mice): 15 min
- ED50 nmol/animal (dose interval) (outbreed male mice): 174 (102-281) nmol/animal
- Relative analgesic activity morphine = 1 (outbreed male mice): 0.007
- GPI Relative potency, % [3]: 100%
- GPIrel/MVDrel [4]: 1
- MVD Relative potency, % ([5]; [Leu^5]-enkephalin = 100): 100%
- IC50 ([5]; mouse vas deferens, electrical stimulation): 20 ± 1 nM

Molecule: Y[dK](Ac)G[Phe(4-NO2)]-NH2 [Peptide 2]
- ED50 (jump latency) (CD-1 male mice; [9]): 1.7 mg/kg
- analgesic activity exceeding that of morphine (CD-1 male mice; intravenous, from ED50 at 15 min): 1.5 times

Molecule: Y[dDab](Ac)G[Phe(4-NO2)]-NH2 [Peptide 4]
- IS/AAR, % (infarct size as % of area at risk) ([6]; 0.01 μg/kg i.v. 5 min before occlusion): 45.1±4.6%
- IS/AAR, % (infarct size as % of area at risk) [6, 10]: 32.0 ± 3.5%
- Relative Reduction of Infarct size, % (Control = 0) [6, 10]: 25.4%
- IS/AAR, % (infarct size as % of area at risk) ([6]; 1 μg/kg i.v. 5 min before occlusion): 26.0 ±3.5%
- IS/AAR, % (infarct size as % of area at risk) [6, 11]: 32.5 ± 2.5%
- Relative Reduction of Infarct size, % (Control = 0) [6, 11]: 24.2%
- time of maximum analgesic effect (CD-1 male mice; [8]): 30 min
- analgesic effect in words (CD-1 male mice; i.v.): weaker than the effect of the other four peptides tested
- IS/AAR, level of ischemic damage ([7]; 1.0 μg/kg i.v. immediately after removal of the LCAO (start of reperfusion)): 32.5±2.4%
- infarct size as % of Area at Risk (IS/AAR) ([7]; doses between 0.2 μg/kg and 3.2 μg/kg, 5 min before ischemia (dose-response curve)): smaller than 30%
